Patent publication US10183032B2, “Methods for treating bacterial infection” (Ball State Innovation Corporation, priority 2012, dated 2019)
Entries after “also recorded” stand apart in the source; their conditions may differ.

What was measured:
Staphylococcus aureus [1] = assay: Intracellular S. aureus population in HUVEC 48 hours post infection, CFU; format: cell-based; conditions: HUVEC pretreated 18 hours (1.0 μM FIG. 7; 10 μM FIG. 11), infected 1 hour
Description: FIG. 7 is a graph illustrating suppression of intracellular population sustained over time. Human umbilical vein endothelial cells (HUVEC) were pretreated (1.0 μM, 18 hours) with the vehicle control dimethyl sulfoxide (DMSO) or ML 141 and infected with Staphylococcus aureus (1 hour). At 48 hours, intracellular bacteria were recovered, serial dilutions incubated on tryptic soy agar and colonies enumerated. Data are presented as % control, ±SEM (*less than vehicle control; p≤0.05 by t-test; n=3-5/treatment).
FIG. 11 is a graph illustrating suppression of intracellular population sustained over time. […]
Two days prior to the assay, TSB is inoculated with S. aureus (American Type Culture Collection #29213) and incubated overnight (225 rpm, 37° C.). […] To detect the level of infection using flow cytometry, cells that have been infected with fluorescently-labeled bacteria are washed extensively with PBS, lifted from 96-well plate by incubation with trypsin, washed extensively in FACS buffer (2% BSA/0.1% sodium azide/PBS), fixed (FACS buffer containing 0.74% formaldehyde), and are counted using an Accuri flow cytometer (BD, Franklin Lakes, N.J.). They are also lifted from culture dishes using cell scrapers, pelleted, fixed (1% BSA/0.74% formaldehyde/PBS), and are counted using an Accuri flow cytometer. […]

Staphylococcus aureus [2] = assay: Assessment of bactericidal activity (HUVEC media); format: cell-based
Description: FIG. 6B illustrates that neither cytotoxicity nor bactericidal activity is detected. Cultures of Staphylococcus aureus that had been incubated with the vehicle control DMSO or with ML 141 (1 hour, 37° C., 225 rpm) were serially diluted, plated onto blood agar, and incubated (18 hours, 37° C.). Colonies were enumerated and colony forming units (CFU)/ml determined. CFU/ml were not different amongst the groups (p>0.05 by t-test; n=2/treatment). […]

actin stress fibers = assay: Actin stress fibers in HUVEC during S. pyogenes infection; format: cell-based, human; conditions: ML 141 10 μM, 18-20 h, MOI 30, 2 h
Description: FIG. 13 is an image depicting ML 141 decreasing actin stress fiber depolymerization during infection. HUVEC were incubated with vehicle control dimethyl sulfoxide (DMSO) or with ML 141 (10 μM) 18-20 h prior to infection with Streptococcus pyogenes at a multiplicity of infection of 30 (2 h). Actin was detected using Alexa Fluor 488 phalloidin. Data are presented as the percentage of HUVEC with no detectable actin stress fibers. 100-200 cells/treatment were evaluated from randomly selected fields. Scale bar is 50 μm (P<0.05 by χ^2 test of association).
For actin assessment, HUVEC were seeded at 6×10^5 cells/ml in 35 mm glass-bottom dishes (MatTek, Ashland, Mass.) that had been coated with Attachment Factor. HUVEC were pretreated with ML 141 or with DMSO and treated with gentamicin as described above. HUVEC were washed three times with PBS and fixed with 4% paraformaldehyde for 30 min, RT. HUVEC were gently washed four times with PBS, permeabilized and blocked with 1% BSA/0.1% Triton (Sigma-Aldrich, T8787). HUVEC were gently washed four times with PBS, probed for actin with Alexa Fluor 488 phalloidin (1:40, Life Technologies, A12379) in PBS (30 min, RT) and washed three more times with PBS. […] A total of 200 HUVEC were assessed for actin stress fiber disassembly from randomly selected fields-of-view. […]

[3] = system: Human umbilical vein endothelial cells; assay: Transmission electron microscopy of infected HUVEC; format: cell-based; conditions: ML 141 10 μM, S. aureus MOI 30, 2 h
Description: FIG. 9 is an image depicting ML 141 limiting damage to host cells. Human umbilical vein endothelial cells were incubated with the vehicle control polyethylene glycol (PEG) or with ML 141 (10 μM) 18-20 h prior to infection with Staphylococcus aureus at a multiplicity of infection of 30 (2 h). Following infection, extracellular bacteria were removed by incubating with lysostaphin and gentamicin (45 min), antimicrobials with limited mammalian membrane permeability. Antimicrobial-containing media was replenished and incubation extended an additional 24 h. Cells were fixed, stained, and examined by transmission electron microscopy. White arrow indicates mitochondria. Black arrow indicates filopodia. White arrowhead indicates membranous structure surrounding bacteria. Black arrowhead indicates dividing bacteria. Scale bar is 5 μm.
HUVEC were plated onto glass coverslips at […], pretreated and infected at a multiplicity of infection (MOI) of 30 for 2 h. Extracellular bacteria were removed and cells incubated for an additional 24 h in media containing antibiotics. […]

**Q.** How did the “viable intracellular bacteria recovered 48 hours post-infection” value (Staphylococcus aureus [1]) turn out when `COc1ccc(C2CC(c3ccccc3)=NN2c2ccc(S(N)(=O)=O)cc2)cc1` (centres unmarked) [ML 141, 4-[3-(4-methoxyphenyl)-5-phenyl-3,4-dihydropyrazol-2-yl]benzenesulfonamide] was run?
**A.** diminished the number of viable bacteria recovered; also recorded: lower

**Q.** What about the “CFU (×10^8 ± SEM), Compound (10 μM)” value (Staphylococcus aureus [2]; 1.2 × 10^8 CFU S. aureus, 1 h in HUVEC media, 10 μM) of the same molecule?
**A.** 8.8 ± 2.9 ×10^8 CFU

**Q.** And the “Bactericidal activity (in words)” value (Staphylococcus aureus [2]; S. aureus incubated 1 h with compound, FIG. 6B, Tables 6 and 7)?
**A.** not detected

**Q.** What about the “reordering of actin stress fibers during S. pyogenes infection” value (actin stress fibers) of the same molecule?
**A.** less reordering of actin stress fibers

**Q.** And the “host cell ultrastructure 24 h post-invasion (organelles)” value [3]?
**A.** remained intact
